Measured values: patent publication US20240270698A2, “NOVEL PYRIMIDINE DERIVATIVE AND USE THEREOF” (KOREA RESEARCH INSTITUTE OF CHEMICAL TECHNOLOGY, priority 2019, published 2024)

How the values were obtained:
[1] = target: T1, human recombinant MLK3 protein (Homo sapiens, UniProt Q16584); test: MLK3 kinase activity assay (Eurofins, gamma-33P-ATP, filtermat scintillation counting); assay type: biochemical; conditions: human recombinant MLK3, 120 minutes at room temperature
T1 construct: purchased Eurofins

[2] = target: T2, human recombinant LRRK2 protein (Homo sapiens, UniProt Q5S007); test: LRRK2 kinase activity assay (Eurofins, gamma-33P-ATP, filtermat scintillation counting); assay type: biochemical; conditions: human recombinant LRRK2, 40 minutes at room temperature
T2 construct: purchased Eurofins

[3] = test system: HS746T cancer cells; test: Anticancer activity, cell viability by CCK-8, HS746T; assay type: cell-based; conditions: 72 hours
In short: (§1)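 HS746T or HepG2 cells seeded at 4,000 cells/well, left 24 h, then exposed to compounds for 72 h. Viability measured by CCK-8 and expressed as % of untreated control.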

[4] = test system: HepG2 cancer cells; test: Anticancer activity, cell viability by CCK-8, HepG2; assay type: cell-based; conditions: HepG2, 10 μM, 72 hours
In short: as §1

T1 sequence (Q16584 whole entry): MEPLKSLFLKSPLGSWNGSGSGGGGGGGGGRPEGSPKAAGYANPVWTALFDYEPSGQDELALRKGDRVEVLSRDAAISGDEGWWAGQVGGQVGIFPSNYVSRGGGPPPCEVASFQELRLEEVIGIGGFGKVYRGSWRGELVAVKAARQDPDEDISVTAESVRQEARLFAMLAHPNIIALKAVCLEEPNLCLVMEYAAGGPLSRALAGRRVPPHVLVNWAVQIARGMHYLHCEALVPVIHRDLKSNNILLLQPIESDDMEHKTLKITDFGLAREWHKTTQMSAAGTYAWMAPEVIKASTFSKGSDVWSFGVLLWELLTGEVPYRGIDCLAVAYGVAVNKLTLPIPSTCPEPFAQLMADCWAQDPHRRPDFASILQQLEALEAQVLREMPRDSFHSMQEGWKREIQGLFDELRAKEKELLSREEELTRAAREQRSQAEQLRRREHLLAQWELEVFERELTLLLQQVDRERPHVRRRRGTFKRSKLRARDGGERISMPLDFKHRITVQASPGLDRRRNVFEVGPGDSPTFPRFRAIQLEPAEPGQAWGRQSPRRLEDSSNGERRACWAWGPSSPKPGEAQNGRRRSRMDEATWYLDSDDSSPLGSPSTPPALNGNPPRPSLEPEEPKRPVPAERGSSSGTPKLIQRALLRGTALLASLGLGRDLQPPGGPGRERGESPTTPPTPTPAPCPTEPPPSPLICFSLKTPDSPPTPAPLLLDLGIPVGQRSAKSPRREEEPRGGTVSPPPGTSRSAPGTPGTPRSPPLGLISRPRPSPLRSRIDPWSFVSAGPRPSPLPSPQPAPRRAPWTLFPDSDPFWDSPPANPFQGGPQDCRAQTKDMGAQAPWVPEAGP
T2 sequence (Q5S007 whole entry): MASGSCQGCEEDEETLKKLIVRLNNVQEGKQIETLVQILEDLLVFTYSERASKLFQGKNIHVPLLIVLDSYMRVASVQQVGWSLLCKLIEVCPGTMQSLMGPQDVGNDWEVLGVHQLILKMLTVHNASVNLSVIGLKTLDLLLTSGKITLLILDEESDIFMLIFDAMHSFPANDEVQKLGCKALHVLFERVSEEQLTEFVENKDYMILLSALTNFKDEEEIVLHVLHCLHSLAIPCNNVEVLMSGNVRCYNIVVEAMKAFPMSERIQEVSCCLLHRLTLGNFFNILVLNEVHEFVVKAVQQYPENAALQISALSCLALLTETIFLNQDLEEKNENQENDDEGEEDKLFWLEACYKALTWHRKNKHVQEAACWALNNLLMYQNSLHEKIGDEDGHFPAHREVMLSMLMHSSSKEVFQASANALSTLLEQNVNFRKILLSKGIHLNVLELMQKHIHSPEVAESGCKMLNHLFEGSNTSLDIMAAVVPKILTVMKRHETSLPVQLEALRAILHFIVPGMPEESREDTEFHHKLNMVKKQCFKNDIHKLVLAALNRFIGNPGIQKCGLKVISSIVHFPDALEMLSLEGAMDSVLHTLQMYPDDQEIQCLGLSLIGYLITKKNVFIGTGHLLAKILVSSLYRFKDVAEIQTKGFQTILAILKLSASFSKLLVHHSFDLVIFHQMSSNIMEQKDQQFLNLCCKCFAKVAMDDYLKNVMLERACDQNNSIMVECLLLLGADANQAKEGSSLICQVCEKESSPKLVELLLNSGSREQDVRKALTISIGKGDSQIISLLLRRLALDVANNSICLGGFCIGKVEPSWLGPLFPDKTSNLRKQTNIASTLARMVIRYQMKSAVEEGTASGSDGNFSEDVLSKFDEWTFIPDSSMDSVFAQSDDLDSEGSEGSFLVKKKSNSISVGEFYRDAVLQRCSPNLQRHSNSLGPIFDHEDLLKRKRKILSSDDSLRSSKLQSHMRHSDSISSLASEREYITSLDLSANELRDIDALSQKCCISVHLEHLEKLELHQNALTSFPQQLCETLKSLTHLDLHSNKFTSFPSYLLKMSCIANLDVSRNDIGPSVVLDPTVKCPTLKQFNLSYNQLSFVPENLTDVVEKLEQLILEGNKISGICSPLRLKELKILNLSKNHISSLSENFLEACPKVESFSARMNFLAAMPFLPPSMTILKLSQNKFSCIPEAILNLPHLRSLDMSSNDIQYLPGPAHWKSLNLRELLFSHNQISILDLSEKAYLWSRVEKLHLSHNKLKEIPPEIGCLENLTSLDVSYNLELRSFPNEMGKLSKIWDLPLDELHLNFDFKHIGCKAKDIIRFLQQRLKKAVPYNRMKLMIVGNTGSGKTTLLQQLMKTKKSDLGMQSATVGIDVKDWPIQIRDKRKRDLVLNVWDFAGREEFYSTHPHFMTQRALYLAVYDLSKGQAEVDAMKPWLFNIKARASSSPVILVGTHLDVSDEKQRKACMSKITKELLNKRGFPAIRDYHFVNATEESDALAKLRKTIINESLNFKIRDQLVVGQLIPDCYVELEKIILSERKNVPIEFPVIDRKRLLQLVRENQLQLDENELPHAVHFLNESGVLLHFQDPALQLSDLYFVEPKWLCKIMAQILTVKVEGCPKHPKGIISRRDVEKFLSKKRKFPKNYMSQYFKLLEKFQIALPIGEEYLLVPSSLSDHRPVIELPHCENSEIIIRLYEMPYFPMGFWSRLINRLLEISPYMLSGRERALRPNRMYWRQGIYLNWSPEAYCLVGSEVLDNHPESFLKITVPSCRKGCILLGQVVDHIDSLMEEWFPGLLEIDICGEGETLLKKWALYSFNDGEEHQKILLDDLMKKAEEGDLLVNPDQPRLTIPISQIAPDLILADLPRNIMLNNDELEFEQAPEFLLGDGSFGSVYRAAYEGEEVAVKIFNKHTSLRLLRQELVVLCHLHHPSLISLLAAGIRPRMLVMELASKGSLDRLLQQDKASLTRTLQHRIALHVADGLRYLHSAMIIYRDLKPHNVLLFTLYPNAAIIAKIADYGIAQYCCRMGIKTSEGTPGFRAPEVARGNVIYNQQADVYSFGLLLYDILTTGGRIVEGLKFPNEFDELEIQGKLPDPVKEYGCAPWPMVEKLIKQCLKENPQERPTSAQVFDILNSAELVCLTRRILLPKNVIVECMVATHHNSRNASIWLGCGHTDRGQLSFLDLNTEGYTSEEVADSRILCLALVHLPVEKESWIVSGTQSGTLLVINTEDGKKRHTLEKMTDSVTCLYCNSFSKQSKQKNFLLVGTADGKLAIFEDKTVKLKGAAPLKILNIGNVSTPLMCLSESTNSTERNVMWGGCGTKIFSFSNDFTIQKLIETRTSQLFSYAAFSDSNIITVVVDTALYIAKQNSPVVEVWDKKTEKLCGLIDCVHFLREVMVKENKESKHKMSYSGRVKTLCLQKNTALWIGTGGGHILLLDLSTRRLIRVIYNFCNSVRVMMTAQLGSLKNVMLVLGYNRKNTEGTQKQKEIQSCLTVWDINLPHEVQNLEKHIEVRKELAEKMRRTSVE

Row | IC50 [1] [nM] | IC50 [2] [nM] | SMILES | Cell viability (% of Con. 10 μM) HS746T [3] | Cell viability (% of Con. 10 μM) HepG2 [4]
1 | 1 to 10 | 1 to 10 | CP(C)(=O)c1ccccc1Nc1nc(Nc2ccc3[nH]nc(-c4ccncc4)c3c2)ncc1Cl [compound 104, (2-((5-Chloro-2-((3-(pyridin-4-yl)-1H-indazol-5-yl)amino)pyrimidin-4-yl)amino)phenyl)dimethylphosphine oxide] | 11 % of Con. | 30 % of Con.
2 | 1 to 10 | 10 to 100 | CP(C)(=O)c1ccccc1Nc1nc(Nc2ccc3[nH]nc(-c4ccc(C#N)cc4)c3c2)ncc1Cl [compound 105, 4-(5-((5-Chloro-4-((2-(dimethylphosphoryl)phenyl)amino)pyrimidin-2-yl)amino)-1H-indazol-3-yl)benzonitrile] | 23 % of Con. | 55 % of Con.
3 | 1 to 10 | 10 to 100 | CC(=O)c1ccc(-c2n[nH]c3ccc(Nc4ncc(Cl)c(Nc5ccccc5P(C)(C)=O)n4)cc23)cc1 [compound 106, 1-(4-(5-((5-chloro-4-((2-(dimethylphosphoryl)phenyl)amino)pyrimidin-2-yl)amino)-1H-indazol-3-yl)phenyl)ethan-1-one] | 17 % of Con. | 75 % of Con.
4 | 1 to 10 | 1 to 10 | CP(C)(=O)c1ccccc1Nc1nc(Nc2ccc3[nH]nc(-c4ccc(F)c(Cl)c4)c3c2)ncc1Cl [compound 107, (2-((5-Chloro-2-((3-(3-chloro-4-fluorophenyl)-1H-indazol-5-yl)amino)pyrimidin-4-yl)amino)phenyl)dimethylphosphine oxide] | 11 % of Con. | 63 % of Con.
5 | 1 to 10 | 10 to 100 | CP(C)(=O)c1ccccc1Nc1nc(Nc2ccc3[nH]nc(-c4ccc(O)cc4)c3c2)ncc1Cl [compound 108, (2-((5-chloro-2-((3-(4-hydroxyphenyl)-1H-indazol-5-yl)amino)pyrimidin-4-yl)amino)phenyl)dimethylphosphine oxide] | 8 % of Con. | 67 % of Con.
6 | 1 to 10 | 10 to 100 | COc1ccc(-c2n[nH]c3ccc(Nc4ncc(Cl)c(Nc5ccccc5P(C)(C)=O)n4)cc23)cc1F [compound 109] | 25 % of Con. | 53 % of Con.
7 | 1 to 10 | 10 to 100 | CP(C)(=O)c1ccccc1Nc1nc(Nc2ccc3[nH]nc(-c4ccc(OC(F)(F)F)cc4)c3c2)ncc1Cl [compound 110, (2-((5-Chloro-2-((3-(4-(trifluoromethoxy)phenyl)-1H-indazol-5-yl)amino)pyrimidin-4-yl)amino)phenyl)dimethylphosphine oxide] | 12 % of Con. | 24 % of Con.
8 | 1 to 10 | 10 to 100 | CP(C)(=O)c1ccccc1Nc1nc(Nc2ccc3[nH]nc(-c4ccc(Cl)c(C(F)(F)F)c4)c3c2)ncc1Cl [compound 111, (2-((5-Chloro-2-((3-(4-chloro-3-(trifluoromethyl)phenyl)-1H-indazol-5-yl)amino)pyrimidin-4-yl)amino)phenyl)dimethylphosphine oxide] | 7 % of Con. | 7 % of Con.
9 | 1 to 10 | 10 to 100 | Cc1ccc(-c2n[nH]c3ccc(Nc4ncc(Cl)c(Nc5ccccc5P(C)(C)=O)n4)cc23)cc1Cl [compound 112, (2-((5-Chloro-2-((3-(3-chloro-4-methylphenyl)-1H-indazol-5-yl)amino)pyrimidin-4-yl)amino)phenyl)dimethylphosphine oxide] | 7 % of Con. | 6 % of Con.
10 | 1 to 10 | 10 to 100 | COc1cc(Cl)cc(-c2n[nH]c3ccc(Nc4ncc(Cl)c(Nc5ccccc5P(C)(C)=O)n4)cc23)c1 [compound 113, (2-((5-Chloro-2-((3-(3-chloro-5-methoxyphenyl)-1H-indazol-5-yl)amino)pyrimidin-4-yl)amino)phenyl)dimethylphosphine oxide] | 26 % of Con. | 16 % of Con.
11 | 1 to 10 | 10 to 100 | CP(C)(=O)c1ccccc1Nc1nc(Nc2ccc3[nH]nc(-c4ccc(S(C)(=O)=O)cc4)c3c2)ncc1Cl [compound 114, (2-((5-Chloro-2-((3-(4-(methylsulfonyl)phenyl)-1H-indazol-5-yl)amino)pyrimidin-4-yl)amino)phenyl)dimethylphosphine oxide] | 33 % of Con. | 68 % of Con.
12 | 1 to 10 | 1 to 10 | CC(C)Oc1cc(F)cc(-c2n[nH]c3ccc(Nc4ncc(Cl)c(Nc5ccccc5P(C)(C)=O)n4)cc23)c1 [compound 115, (2-((5-Chloro-2-((3-(3-fluoro-5-isopropoxyphenyl)-1H-indazol-5-yl)amino)pyrimidin-4-yl)amino)phenyl)dimethylphosphine oxide] | 10 % of Con. | 50 % of Con.
13 | 1 to 10 | 10 to 100 | CP(C)(=O)c1ccccc1Nc1nc(Nc2ccc3[nH]nc(-c4cccc(C#N)c4)c3c2)ncc1Cl [compound 116, 3-(5-((5-Chloro-4-((2-(dimethylphosphoryl)phenyl)amino)pyrimidin-2-yl)amino)-1H-indazol-3-yl)benzonitrile] | 19 % of Con. | 32 % of Con.
14 | 1 to 10 | 10 to 100 | CC(C)(C)OC(=O)N1CCN(c2ccc(-c3n[nH]c4ccc(Nc5ncc(Cl)c(Nc6ccccc6P(C)(C)=O)n5)cc34)cc2)CC1 [compound 117, Tert-butyl 4-(4-(5-((5-chloro-4-((2-(dimethylphosphoryl)phenyl)amino)pyrimidin-2-yl)amino)-1H-indazol-3-yl)phenyl)piperazine-1-carboxylate] | 20 % of Con. | 68 % of Con.
15 | 1 to 10 | 10 to 100 | CP(C)(=O)c1ccccc1Nc1nc(Nc2ccc3[nH]nc(-c4cccc(O)c4)c3c2)ncc1Cl [compound 118, (2-((5-chloro-2-((3-(3-hydroxyphenyl)-1H-indazol-5-yl)amino)pyrimidin-4-yl)amino)phenyl)dimethylphosphine oxide] | 5 % of Con. | 43 % of Con.
